Source: PubChem BioAssay (NCI)
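Interpolation was linear, between the two tested concentrations surrounding the appropriate level; five concentrations were tested over 48 hours in 96-well plates. The concentration for 50% growth inhibition is given as GI50. TGI marks complete inhibition of growth.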

Key:
Experiment in all cases: NCI-60 cell line screen, 48 h
786-0 renal = system: 786-0 renal
A498 renal = system: A498 renal
A549 NSCLC = system: A549 NSCLC
ACHN renal = system: ACHN renal
BT-549 breast = system: BT-549 breast
CAKI-1 renal = system: CAKI-1 renal
COLO 205 colon = system: COLO 205 colon
DU-145 prostate = system: DU-145 prostate
EKVX NSCLC = system: EKVX NSCLC
HCC-2998 colon = system: HCC-2998 colon
HCT-116 colon = system: HCT-116 colon
HCT-15 colon = system: HCT-15 colon
HL-60(TB) leukemia = system: HL-60(TB) leukemia
HOP-62 NSCLC = system: HOP-62 NSCLC
HOP-92 NSCLC = system: HOP-92 NSCLC
HS 578T breast = system: HS 578T breast
HT29 colon = system: HT29 colon
IGROV1 ovarian = system: IGROV1 ovarian
KM12 colon = system: KM12 colon
LOX IMVI melanoma = system: LOX IMVI melanoma
M14 melanoma = system: M14 melanoma
MALME-3M melanoma = system: MALME-3M melanoma
MCF7 breast = system: MCF7 breast
MDA-MB-231 breast = system: MDA-MB-231 breast
MDA-MB-435 = system: MDA-MB-435
MOLT-4 leukemia = system: MOLT-4 leukemia
NCI-H23 lung = system: NCI-H23 lung
NCI-H460 lung = system: NCI-H460 lung
NCI-H522 lung = system: NCI-H522 lung
NCI/ADR-RES ovarian = system: NCI/ADR-RES ovarian
OVCAR-3 ovarian = system: OVCAR-3 ovarian
OVCAR-4 ovarian = system: OVCAR-4 ovarian
OVCAR-5 ovarian = system: OVCAR-5 ovarian
OVCAR-8 ovarian = system: OVCAR-8 ovarian
PC-3 prostate = system: PC-3 prostate
RPMI-8226 leukemia = system: RPMI-8226 leukemia
RXF 393 renal = system: RXF 393 renal
SF-268 CNS = system: SF-268 CNS
SF-295 CNS = system: SF-295 CNS
SK-MEL-2 melanoma = system: SK-MEL-2 melanoma
SK-MEL-28 melanoma = system: SK-MEL-28 melanoma
SK-MEL-5 melanoma = system: SK-MEL-5 melanoma
SK-OV-3 ovarian = system: SK-OV-3 ovarian
SN12C renal = system: SN12C renal
SNB-19 CNS = system: SNB-19 CNS
SNB-75 CNS = system: SNB-75 CNS
SR leukemia = system: SR leukemia
SW-620 colon = system: SW-620 colon
T-47D breast = system: T-47D breast
TK-10 renal = system: TK-10 renal
U251 CNS = system: U251 CNS
UACC-257 melanoma = system: UACC-257 melanoma
UACC-62 melanoma = system: UACC-62 melanoma
UO-31 renal = system: UO-31 renal
CCRF-CEM leukemia = system: CCRF-CEM leukemia
K-562 leukemia = system: K-562 leukemia
NCI-H226 lung = system: NCI-H226 lung
SF-539 CNS = system: SF-539 CNS

For c1ccc(CSSSCc2ccccc2)cc1, the TGI (786-0 renal) was 12.8 µM, the TGI (A498 renal) was > 100 µM and the TGI (A549 NSCLC) was > 100 µM. It also gave a TGI (ACHN renal) of 29.1 µM, a TGI (BT-549 breast) of 19.8 µM and a TGI (CAKI-1 renal) of 22.6 µM. For the same compound, the TGI (COLO 205 colon) was 11.6 µM, the TGI (DU-145 prostate) was 4.97 µM and the TGI (EKVX NSCLC) was > 100 µM. The TGI (HCC-2998 colon) was 17.8 µM, the TGI (HCT-116 colon) was 12.1 µM and the TGI (HCT-15 colon) was > 100 µM. The TGI (HL-60(TB) leukemia) was 3.22 µM, the TGI (HOP-62 NSCLC) was 5.03 µM and the TGI (HOP-92 NSCLC) was > 92.7 µM. For the same compound, the TGI (HS 578T breast) was > 31 µM, the TGI (HT29 colon) was 19.6 µM and the TGI (IGROV1 ovarian) was > 90.9 µM. For the same compound, the TGI (KM12 colon) was > 100 µM, the TGI (LOX IMVI melanoma) was 17.4 µM and the TGI (M14 melanoma) was > 100 µM. For the same compound, the TGI (MALME-3M melanoma) was > 100 µM, the TGI (MCF7 breast) was > 42.1 µM and the TGI (MDA-MB-231 breast) was 23.7 µM. For the same compound, the TGI (MDA-MB-435) was 2.83 µM, the TGI (MOLT-4 leukemia) was > 100 µM and the TGI (NCI-H23 lung) was > 48.5 µM. The TGI (NCI-H460 lung) was 16.2 µM, the TGI (NCI-H522 lung) was 3.33 µM and the TGI (NCI/ADR-RES ovarian) was 9.78 µM. It also gave a TGI (OVCAR-3 ovarian) of 2.98 µM, a TGI (OVCAR-4 ovarian) of 38 µM and a TGI (OVCAR-5 ovarian) of 41.2 µM. For the same compound, the TGI (OVCAR-8 ovarian) was > 41.2 µM, the TGI (PC-3 prostate) was > 100 µM and the TGI (RPMI-8226 leukemia) was 10.8 µM. The TGI (RXF 393 renal) was 14.8 µM, the TGI (SF-268 CNS) was 31.4 µM and the TGI (SF-295 CNS) was 49.8 µM. The TGI (SK-MEL-2 melanoma) was 8.36 µM, the TGI (SK-MEL-28 melanoma) was > 100 µM and the TGI (SK-MEL-5 melanoma) was 15.3 µM. The TGI (SK-OV-3 ovarian) was 22.9 µM, the TGI (SN12C renal) was 18 µM and the TGI (SNB-19 CNS) was > 100 µM. The TGI (SNB-75 CNS) was 39.4 µM, the TGI (SR leukemia) was 87.3 µM and the TGI (SW-620 colon) was > 51.9 µM. For the same compound, the TGI (T-47D breast) was > 64.5 µM, the TGI (TK-10 renal) was > 73.9 µM and the TGI (U251 CNS) was 17.1 µM. The TGI (UACC-257 melanoma) was > 95.4 µM, the TGI (UACC-62 melanoma) was 16.1 µM and the TGI (UO-31 renal) was 37.1 µM.

In the case of CC(=O)Nc1ccc2c(C3=C(c4cn(C)c5ccccc45)C(=O)NC3=O)cn(C)c2c1, the GI50 (786-0 renal) is reported as 2.09 µM, the TGI (786-0 renal) is reported as > 25 µM and the GI50 (A498 renal) is reported as 0.386 µM. The TGI (A498 renal) was 12.8 µM, the GI50 (A549 NSCLC) was 1.05 µM and the TGI (A549 NSCLC) was > 25 µM. For the same compound, the GI50 (ACHN renal) was 1.42 µM, the TGI (ACHN renal) was > 25 µM and the GI50 (BT-549 breast) was > 25 µM. The TGI (BT-549 breast) was > 25 µM, the GI50 (CAKI-1 renal) was 2.08 µM and the TGI (CAKI-1 renal) was > 25 µM. For the same compound, the GI50 (CCRF-CEM leukemia) was 0.0773 µM, the TGI (CCRF-CEM leukemia) was > 25 µM and the GI50 (COLO 205 colon) was 0.691 µM. The TGI (COLO 205 colon) was 1.72 µM, the GI50 (DU-145 prostate) was 1.01 µM and the TGI (DU-145 prostate) was > 24.2 µM. The GI50 (HCC-2998 colon) was 0.89 µM, the TGI (HCC-2998 colon) was > 25 µM and the GI50 (HCT-116 colon) was 0.697 µM. For the same compound, the TGI (HCT-116 colon) was > 16.6 µM, the GI50 (HCT-15 colon) was 1.24 µM and the TGI (HCT-15 colon) was > 25 µM. For the same compound, the GI50 (HL-60(TB) leukemia) was 0.921 µM, the TGI (HL-60(TB) leukemia) was > 25 µM and the GI50 (HOP-62 NSCLC) was 1.15 µM. The TGI (HOP-62 NSCLC) was > 25 µM, the GI50 (HS 578T breast) was 0.443 µM and the TGI (HS 578T breast) was > 25 µM. For the same compound, the GI50 (HT29 colon) was 0.833 µM, the TGI (HT29 colon) was > 25 µM and the GI50 (IGROV1 ovarian) was 1.47 µM. The TGI (IGROV1 ovarian) was > 25 µM, the GI50 (K-562 leukemia) was 0.762 µM and the TGI (K-562 leukemia) was > 25 µM. For the same compound, the GI50 (KM12 colon) was 0.749 µM, the TGI (KM12 colon) was > 15 µM and the GI50 (LOX IMVI melanoma) was 0.634 µM. The TGI (LOX IMVI melanoma) was > 25 µM, the GI50 (M14 melanoma) was 0.945 µM and the TGI (M14 melanoma) was > 25 µM. For the same compound, the GI50 (MALME-3M melanoma) was > 25 µM, the TGI (MALME-3M melanoma) was > 25 µM and the GI50 (MCF7 breast) was 0.294 µM. The TGI (MCF7 breast) was > 25 µM, the GI50 (MDA-MB-231 breast) was 0.821 µM and the TGI (MDA-MB-231 breast) was > 25 µM. For the same compound, the GI50 (MDA-MB-435) was 0.118 µM, the TGI (MDA-MB-435) was 0.842 µM and the GI50 (MOLT-4 leukemia) was 1.06 µM. For the same compound, the TGI (MOLT-4 leukemia) was > 25 µM, the GI50 (NCI-H226 lung) was > 6.26 µM and the TGI (NCI-H226 lung) was > 25 µM. For the same compound, the GI50 (NCI-H23 lung) was 1.16 µM, the TGI (NCI-H23 lung) was > 25 µM and the GI50 (NCI-H460 lung) was 0.881 µM. For the same compound, the TGI (NCI-H460 lung) was > 25 µM, the GI50 (NCI-H522 lung) was 0.218 µM and the TGI (NCI-H522 lung) was 1.31 µM. The GI50 (NCI/ADR-RES ovarian) was 13.9 µM, the TGI (NCI/ADR-RES ovarian) was > 25 µM and the GI50 (OVCAR-3 ovarian) was 0.737 µM. The TGI (OVCAR-3 ovarian) was 3.1 µM, the GI50 (OVCAR-4 ovarian) was 1.28 µM and the TGI (OVCAR-4 ovarian) was > 25 µM. For the same compound, the GI50 (OVCAR-8 ovarian) was 0.9 µM, the TGI (OVCAR-8 ovarian) was > 25 µM and the GI50 (PC-3 prostate) was 0.802 µM. For the same compound, the TGI (PC-3 prostate) was > 25 µM, the GI50 (RPMI-8226 leukemia) was 1.11 µM and the TGI (RPMI-8226 leukemia) was > 25 µM. The GI50 (RXF 393 renal) was 0.512 µM, the TGI (RXF 393 renal) was > 7.02 µM and the GI50 (SF-268 CNS) was 1.36 µM. For the same compound, the TGI (SF-268 CNS) was > 25 µM, the GI50 (SF-295 CNS) was 0.552 µM and the TGI (SF-295 CNS) was > 5.63 µM. It also gave a GI50 (SF-539 CNS) of 0.376 µM, a TGI (SF-539 CNS) of 1.4 µM and a GI50 (SK-MEL-2 melanoma) of 5.69 µM. For the same compound, the TGI (SK-MEL-2 melanoma) was > 25 µM, the GI50 (SK-MEL-28 melanoma) was > 5.94 µM and the TGI (SK-MEL-28 melanoma) was > 25 µM. The GI50 (SK-MEL-5 melanoma) was 0.637 µM, the TGI (SK-MEL-5 melanoma) was 3.12 µM and the GI50 (SK-OV-3 ovarian) was 1.53 µM. For the same compound, the TGI (SK-OV-3 ovarian) was > 25 µM, the GI50 (SN12C renal) was 1.25 µM and the TGI (SN12C renal) was > 25 µM. For the same compound, the GI50 (SNB-19 CNS) was 5.13 µM, the TGI (SNB-19 CNS) was > 25 µM and the GI50 (SNB-75 CNS) was 0.215 µM. For the same compound, the TGI (SNB-75 CNS) was > 25 µM, the GI50 (SR leukemia) was 0.363 µM and the TGI (SR leukemia) was > 25 µM. The GI50 (SW-620 colon) was 0.892 µM, the TGI (SW-620 colon) was > 25 µM and the GI50 (T-47D breast) was > 25 µM. For the same compound, the TGI (T-47D breast) was > 25 µM, the GI50 (TK-10 renal) was > 25 µM and the TGI (TK-10 renal) was > 25 µM. For the same compound, the GI50 (U251 CNS) was 0.889 µM, the TGI (U251 CNS) was > 25 µM and the GI50 (UACC-257 melanoma) was > 14.9 µM. The TGI (UACC-257 melanoma) was > 25 µM, the GI50 (UACC-62 melanoma) was 1.3 µM and the TGI (UACC-62 melanoma) was > 25 µM. For the same compound, the GI50 (UO-31 renal) was > 9.45 µM and the TGI (UO-31 renal) was > 25 µM.
